# Patent publication US20250241890A1, “1,4-DIUREAS AND 1,4-DITHIOUREAS AND USES THEREOF” (Purdue Research Foundation, priority 2024, published 2025)
# How the values were obtained:
# [1] = system: neuroblastoma cells (SH-SY5Y); test: MTT cytotoxicity; type: cell-based, human; settings: for cell survival, MTT, difference to DMSO control: 20 μM, 48 hours; for cytotoxicity, MTT: 5 or 10 μM, 24 hours
# Method: MTT (3-(4,5-Dimethylthiazol-2-yl)-2,5-diphenyltetrazolium bromide) is a tetrazolium salt that is commonly used to detect reductive metabolism in cells for viability, proliferation and cytotoxicity assays. MTT was utilized in order to evaluate metabolic cellular toxicity of compounds 1, 2, and DMSO (vehicle) using human neuroblastoma cells (SH-SY5Y). Cells were diluted in cellular media in order to obtain ˜500,000 cells per condition and grown for 8-12 hours prior treatment. Cellular media (see the material and method section below) was then removed. The cells were then treated with compounds 1 or 2 at 20 μM or DMSO control at 0.05% (FIG. 9) diluted in cellular media followed by an additional incubation of 48 hours. Cellular media was removed, and the cells were treated with 50% MTT in cellular media for 2 hours at 37° C. followed by detergent solution. Differences were considered non-significant (at p<0.05) (FIG. 9) based on the one-way analysis of variance (ANOVA) without post-test performed with GraphPad Prism (version 5).
# MTT assay was performed once again with compounds 1 and 2 and DMSO control at 5 and 10 μM. Each well contained ˜500,000 cells (6-well plate) prepared 8-12 hours prior to treatment. The cells were treated for 24 hours, and then MTT method was applied to assess cell survival. […] No differences were detected at p<0.001 using the one-way analysis of variance (ANOVA) with Dunnett's multiple comparison test.
# tau isoform 0N4R = target: T1, tau isoform 0N4R (Homo sapiens, UniProt P10636); test: PICUP assay of tau 0N4R oligomer formation; type: biochemical; settings: tau 10 μM, compound 50 μM (molar ratio 1:5)
# T1 construct: made in house; host or cells: Rosetta BL21 E. coli
# T1 sequence (P10636 1-383 isoform P10636-6): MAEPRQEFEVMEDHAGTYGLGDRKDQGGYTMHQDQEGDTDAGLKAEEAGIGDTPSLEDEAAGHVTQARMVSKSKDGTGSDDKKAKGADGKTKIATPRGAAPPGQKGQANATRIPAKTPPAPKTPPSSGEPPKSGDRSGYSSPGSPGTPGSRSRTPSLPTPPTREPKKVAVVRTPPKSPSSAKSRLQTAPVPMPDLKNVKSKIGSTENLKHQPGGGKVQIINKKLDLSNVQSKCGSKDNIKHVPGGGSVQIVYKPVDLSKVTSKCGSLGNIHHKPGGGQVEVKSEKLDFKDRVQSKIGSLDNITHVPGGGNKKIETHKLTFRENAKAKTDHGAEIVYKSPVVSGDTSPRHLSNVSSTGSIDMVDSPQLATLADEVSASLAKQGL
# Method: FIG. 5. […] Compounds 1, 2, and 8 were selected for their α-syn anti-oligomerization activity. Compound 7 was used as di-urea counterpart of compound 8, as compound 1 is the di-urea counterpart of compound 2, a dithiourea derivative. Tau (10 μM) was cross-linked (PICUP assay) with different concentrations of the di-substituted aminoindolyl derivatives at 50 μM (molar ratio 1:5).
# Chemical and peptide source. Dimethylsulfoxide (DMSO) and thioflavin-T (ThT) were purchased from Alfa Aesar (Ward Hill, MA). Recombinant α-synuclein (α-syn) was procured from rPeptide (WatKinsville, GA). The recombinant p-tau isoform 1N4R was prepared as published previously (Fortin et al. 2021, Sui et al. 2015, Liu et al. 2020). Concerning the preparation of tau 0N4R, a bacterial expression plasmid consisting of the vector pET30a carrying a cDNA encoding the human Tau 0N4R isoform was a kind gift of Dr. Benjamin Wolozin (Boston University). E. coli stock (Rosetta BL21 E. coli (CamR) containing pET30a [0N4R tau wt] (KanR)) was grown in LB medium supplemented with kanamycin (50 μg/mL) and chloramphenicol (50 μg/mL). […] General Characterizations. ^1H and ^13C {1H} NMR spectra were recorded using a 500 MHz Bruker instrument working at a frequency of 500 MHz for ^1H and at 126 MHz for ^13C. […] Thioflavin fluorescence assays. Thioflavin fluorescence assays were used to monitor fibril formation of commercial recombinant α-syn at a final concentration of 2 μM and treated with control DMSO and different compounds. […] Kinetics of fibril formation have been performed using ThT as published previously.^6, 12, 13, 24 The fluorescence emission experiments were performed with the excitation and emission wavelengths set at 440 and 485 nm, respectively, with a Synergy HT multi-mode microplate reader (BioTek, Winooski, VT). Samples were measured in three replicates. […] For each time point, arbitrary units of fluorescence were calculated from the mean values normalized against the maximum value. The percentage of fluorescence intensity at the plateau phase in Table 1 was expressed as mean #SEM. […]
# p-tau isoform 1N4R = target: T2, p-tau isoform 1N4R (Homo sapiens, UniProt P10636); test: PICUP assay of p-tau 1N4R oligomer formation; type: biochemical; settings: p-tau 4 μM, compound 50 μM (molar ratio 1:12.5)
# T2 construct: made in house
# T2 sequence (P10636 1-412 isoform P10636-7): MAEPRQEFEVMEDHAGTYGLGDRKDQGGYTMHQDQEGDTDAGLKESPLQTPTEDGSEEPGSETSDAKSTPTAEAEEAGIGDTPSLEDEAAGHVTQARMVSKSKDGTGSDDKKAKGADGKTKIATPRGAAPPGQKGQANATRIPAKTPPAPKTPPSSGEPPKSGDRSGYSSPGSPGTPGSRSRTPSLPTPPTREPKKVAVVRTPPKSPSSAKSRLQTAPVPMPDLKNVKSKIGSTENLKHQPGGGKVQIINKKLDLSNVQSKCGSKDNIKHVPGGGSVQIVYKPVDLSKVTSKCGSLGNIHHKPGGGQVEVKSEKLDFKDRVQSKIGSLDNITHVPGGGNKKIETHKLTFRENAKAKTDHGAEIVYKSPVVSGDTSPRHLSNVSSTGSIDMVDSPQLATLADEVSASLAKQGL
# α-syn fibrils = target: T3, α-syn fibrils (Homo sapiens, UniProt P37840); test: Transmission electron microscopy (TEM) of α-syn fibrils; type: biochemical; settings: α-syn 2 μM, compound 100 μM, ~22 hours at 37° C.
# T3 construct: purchased rPeptide (Watkinsville, GA)
SMILES,"cell survival, MTT, difference to DMSO control [1]","cytotoxicity, MTT [1]",effect on tau 0N4R oligomer formation by PICUP (tau isoform 0N4R),effect on p-tau 1N4R oligomer formation by PICUP (p-tau isoform 1N4R),effect on α-syn fibrils by TEM (α-syn fibrils)
"O=C(Nc1ccc(NC(=O)Nc2cccc3[nH]ccc23)cc1)Nc1cccc2[nH]ccc12 [Compound 1, 3-(1H-indol-4-yl)-1-(4-{[(1H-indol-4-yl)carbamoyl]amino}phenyl)urea]",non-significant,did not induce cytotoxicity,,,
"S=C(Nc1ccc(NC(=S)Nc2cccc3[nH]ccc23)cc1)Nc1cccc2[nH]ccc12 [Compound 2, 3-(1H-indol-4-yl)-1-(4-{[(1H-indol-4-yl)carbamothioyl]amino}phenyl)thiourea]",non-significant,did not induce cytotoxicity,None of these compounds were able to reduce the tau 0N4R oligomer formation,failed to inhibit p-tau oligomer formation,reduced α-syn fibril formation
"S=C(Nc1ccc(NC(=S)Nc2cccc3cc[nH]c23)cc1)Nc1cccc2cc[nH]c12 [Compound 8, 3-(1H-indol-7-yl)-1-(4-{[(1H-indol-7-yl)carbamothioyl]amino}phenyl)thiourea]",,,None of these compounds were able to reduce the tau 0N4R oligomer formation,,
